In ChEMBL document CHEMBL3886925, “Thieno- and furo[2,3-d]pyrimidine-2,4[1H,3H]-dione derivatives” (2016) one finds IC50 data, which are given here for two molecules.

This assay has as its target T1, Short transient receptor potential channel 5 (Homo sapiens, UniProt Q9UL62).
T1 sequence (Q9UL62 whole entry): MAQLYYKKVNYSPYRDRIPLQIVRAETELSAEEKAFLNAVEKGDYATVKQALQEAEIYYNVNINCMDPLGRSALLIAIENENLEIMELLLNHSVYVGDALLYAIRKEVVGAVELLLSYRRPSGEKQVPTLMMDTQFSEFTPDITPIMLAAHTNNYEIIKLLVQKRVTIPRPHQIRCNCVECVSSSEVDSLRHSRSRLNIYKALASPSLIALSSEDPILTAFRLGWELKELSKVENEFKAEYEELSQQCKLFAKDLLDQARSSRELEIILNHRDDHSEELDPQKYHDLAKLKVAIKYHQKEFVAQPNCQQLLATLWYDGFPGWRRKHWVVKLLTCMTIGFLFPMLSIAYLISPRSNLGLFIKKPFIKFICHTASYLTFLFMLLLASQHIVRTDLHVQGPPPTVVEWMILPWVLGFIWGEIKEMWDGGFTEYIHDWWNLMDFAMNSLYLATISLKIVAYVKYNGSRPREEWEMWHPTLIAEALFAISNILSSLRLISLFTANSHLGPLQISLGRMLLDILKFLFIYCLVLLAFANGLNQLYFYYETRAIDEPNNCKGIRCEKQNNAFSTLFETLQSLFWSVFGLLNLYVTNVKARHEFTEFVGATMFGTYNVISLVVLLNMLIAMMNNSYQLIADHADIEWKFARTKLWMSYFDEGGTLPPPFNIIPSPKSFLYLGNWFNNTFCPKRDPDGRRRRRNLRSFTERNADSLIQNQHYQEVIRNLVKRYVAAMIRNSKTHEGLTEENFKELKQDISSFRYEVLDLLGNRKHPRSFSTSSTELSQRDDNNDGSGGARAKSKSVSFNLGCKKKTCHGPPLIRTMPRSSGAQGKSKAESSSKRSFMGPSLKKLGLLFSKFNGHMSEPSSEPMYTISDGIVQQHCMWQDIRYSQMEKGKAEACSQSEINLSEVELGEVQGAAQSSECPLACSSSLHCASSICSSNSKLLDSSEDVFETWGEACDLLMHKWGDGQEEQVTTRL
Description: High Throughput Screening Assay: The commercially available HEK293/TREx line (Invitrogen) was stably transfected with a TRPC5 construct and screened by conventional calcium imaging to find clones with TRPC5 expression following stimulation with 1 μg/ml tetracycline. These cells were maintained in the growth medium recommended by the manufacturer supplemented with 100 μg/ml hygromycin to promote retention of the TRPC5 construct. After growing to near confluency, cells were plated at a density of Ë¿35,000 cells/well in 384 well CellBind plates (Corning) in the presence of 1 μg/ml tetracycline, and allowed to grow for 20-30 hrs. A nearly confluent monolayer resulted. Cells were then loaded with Ca2+ dye: Fura-2/AM or Fluo4/AM was added to the wells to a final concentration of 4 μM or 0.5 μM, respectively, and incubated for 80 min or 60 min, respectively, at room temperature. Supernatant was then removed from the cells by inverting plates with a sharp flick, and 25 μl Hank's Balanced Salt Solution (HBSS; 0.185 g/l D-glucose, 0.9767 g/l MgS04 (anhydrous), 0.4 g/l KCl, 0.06 g/l KH2PO4 (anhydrous), 0.35 g/l NaHCO3, 8.0 g/l NaCl, and 0.04788 g/l Na2HPO4 (anhydrous); pH 7.4) was then added to each well. […].

For the molecule `Cc1c(-c2cccc(Cl)c2Cl)sc2c1c(=O)n(CCCO)c(=O)n2C`, the IC50 was 31.6 nM. The value for `Cn1c(=O)n(CCCO)c(=O)c2c(C(O)c3ccc(Cl)cc3)c(Oc3cccc(OC(F)(F)F)c3)sc21` (configuration not stated) was 194 nM.

As usually defined, the IC50 is the point on the concentration scale where inhibition reaches its midpoint.
